Reference: patent US20230390292A1, “REGIMENS FOR THE TREATMENT OF HAIR LOSS DISORDERS WITH DEUTERATED JAK INHIBITORS” (Sun Pharmaceutical Industries, Inc., priority 2020, published 2023)

Tests used:
Type in all cases: in vivo, human
[1] = tested on: adult patients with moderate-to-severe alopecia areata; assay: Phase 2a trial, efficacy by severity of alopecia tool (SALT)
Text: The efficacy of treatment of hair loss disorders such as alopecia areata can be measured in a variety of ways, some of which are known in the art. For example, the “severity of alopecia tool”, otherwise known as SALT, is a validated assessment scale developed by the National Alopecia Areata Foundation working committee—to evaluate the degree of hair loss. See, e.g., Olsen E A, Hordinsky M K, Price V H, et al. Alopecia areata investigational assessment guidelines—Part II. J Am Acad Dermatol 2004: 51: 440-447 (incorporated herein by reference). The SALT score is calculated for a patient by measuring the percentage of hair loss in each of the 4 areas of the scalp and adding the total to achieve a composite score. Hair regrowth is reflected by a decrease in the SALT score. For example, no hair on the scalp would have a SALT score of 100 while complete hair regrowth would be a SALT score of 0. In certain embodiments, methods of treatment as described herein can provide a SALT score improvement of at least 10 points after treatment (for example, from a SALT score of 100 prior to treatment to a SALT score of 90 after treatment). In further embodiments, methods of treatment as described herein can provide a SALT score improvement of at least 20 points, 30 points, 40 points, 50 points, 60 points, 70 points, 80 points, 90 points, or 100 points. In certain embodiments, methods of treatment as described herein can provide after treatment at least a 20% improvement from baseline in the patient's SALT score, or at least a 30% improvement from baseline in the patient's SALT score, or at least a 40% improvement from baseline in the patient's SALT score, or at least a 50% improvement from baseline in the patient's SALT score, or at least a 60% improvement from baseline in the patient's SALT score, or at least a 70% improvement from baseline in the patient's SALT score, or at least a 75% improvement from baseline in the patient's SALT score or at least a 80% improvement from baseline in the patient's SALT score, or at least a 90% improvement from baseline in the patient's SALT score.
(§1) A Phase 2a trial was conducted to evaluate the safety and efficacy of Compound (I) (CTP-543) in subjects with alopecia, with the primary efficacy analysis at week 24. The Phase 2a trial was a double-blind, randomized, placebo-controlled trial to evaluate the safety and efficacy of Compound (I) in adult patients with moderate-to-severe alopecia areata. Patients were sequentially randomized to receive one of three doses of Compound I as the phosphate salt (e.g., 10.5 mg of Compound (I) phosphate salt is equivalent to 8 mg of Compound (I) free base). The doses of Compound (I) were 4, 8 (i.e., about 10.5 mg of Compound (I) phosphate salt), and 12 mg twice daily, and there was also a patient group receiving placebo. The primary outcome measure utilized the severity of alopecia tool (SALT) after 24 weeks of dosing.
Interim top line analysis for the 4 mg, 8 mg, and 12 mg cohorts is discussed below. The primary endpoint for the study was a 50% relative reduction in SALT between Week 24 and baseline.
58% of patients treated with 12 mg BID (twice daily) and 47% of patients treated with 8 mg BID (twice daily) of CTP-543 achieved a ≥50% reduction in their overall SALT score compared to 8.6% placebo (p<0.001). In addition, 42% of patients treated with 12 mg BID (p<0.001) and 29% of patients treated with 8 mg BID (p<0.05) of CTP-543 achieved a ≥75% reduction in their overall SALT score compared to 7% placebo. Further, 36% of patients treated with 12 mg BID (p<0.001) and 16% of patients treated with 8 mg BID (p<0.05) of CTP-543 achieved a ≥90% reduction in their overall SALT score compared to 2% placebo. 21% of patients treated with 4 mg BID of CTP-543 achieved a ≥50% reduction in their overall SALT score compared to 8.6% placebo (not significant). […] Significant changes in SALT score were observed starting at 12 weeks for the 12 mg and 8 mg cohorts compared to placebo (p<0.05).

[2] = tested on: subjects with alopecia areata; assay: Open-label extension study (OLE), SALT score after dose reduction
Experimental: In an ongoing open-label extension study, subjects who were previously enrolled in a qualifying clinical study (including the study described in Example 1) and received either a total daily dose of 16 mg of Compound (I) (CTP-543, phosphate salt), a total daily dose of 24 mg of CTP-543, or placebo, and completed through the 24-week treatment period, were eligible to enroll in an open-label extension study (OLE) and continue to receive treatment with CTP-543 phosphate. A total of 152 subjects were enrolled in the OLE. In the OLE, subjects received daily treatment with CTP-543 at a dose of 8 mg BID or 12 mg BID (see FIG. 8). Dose adjustments were allowed at the investigator's discretion. One subject enrolled in the OLE, who received a daily dose of 24 mg QD of CTP-543 for approximately 9 months (i.e., the 24-week study period and the initial 3 months of the OLE), experienced hair growth at that dose (SALT score of zero, i.e., full regrowth of hair prior to dose reduction). The subject then had their dose reduced to a daily dose of 8 mg BID of CTP-543 phosphate. After approximately 7 months in the OLE receiving the lower daily dose of 8 mg BID of CTP-543, the subject continued to substantially maintain hair regrowth, with a SALT score of 7.92.

[3] = tested on: adult patients with moderate-to-severe alopecia areata; assay: Phase 2a trial, safety (treatment emergent adverse events)
Experimental: as §1
In the preliminary analysis of the placebo, 4 mg, and 8 mg groups, there were only 3 Grade 3/4 hematology events, distributed equally across the placebo, 4 mg, and 8 mg groups.

[2H]C1([2H])C([C@@H](CC#N)n2cc(-c3ncnc4[nH]ccc34)cn2)C([2H])([2H])C([2H])([2H])C1([2H])[2H] [CTP-543, (R)-3-(4-(7H-pyrrolo[2,3-d]pyrimidin-4-yl)-1H-pyrazol-1-yl)-3-(cyclopentyl-2,2,3,3,4,4,5,5-d8)propanenitrile]
separation from placebo ([1]; 4 mg BID, all measures): failed to separate from placebo on all measures
patients achieving a ≥50% reduction in overall SALT score ([1]; 4 mg BID, week 24, vs 8.6% placebo (not significant)): 21%
difference from placebo on SALT measures ([1]; 8 mg BID and 12 mg BID, week 24): significantly different from placebo on all SALT measures
patients achieving a ≥90% reduction in overall SALT score ([1]; 8 mg BID, vs 2% placebo (p<0.05)): 16%
patients achieving a ≥75% reduction in overall SALT score ([1]; 8 mg BID, vs 7% placebo (p<0.05)): 29%
patients achieving a ≥50% reduction in overall SALT score ([1]; 8 mg BID, week 24, vs 8.6% placebo (p<0.001)): 47%
effect of 12 mg BID compared to 8 mg BID ([1]; 12 mg BID vs 8 mg BID): numerically superior and generally produced faster onset and greater effect
patients achieving a ≥90% reduction in overall SALT score ([1]; 12 mg BID, vs 2% placebo (p<0.001)): 36%
patients achieving a ≥75% reduction in overall SALT score ([1]; 12 mg BID, vs 7% placebo (p<0.001)): 42%
patients achieving a ≥50% reduction in overall SALT score ([1]; 12 mg BID, week 24, vs 8.6% placebo (p<0.001)): 58%
start of significant changes in SALT score compared to placebo ([1]; 12 mg and 8 mg cohorts, p<0.05): 12 weeks
difference of 12 mg BID and 8 mg BID dose groups from 4 mg BID dose group ([1]; p<0.05): significantly different
SALT score prior to dose reduction ([2]; one subject, 24 mg QD for approximately 9 months): zero
SALT score after dose reduction ([2]; same subject, approximately 7 months at 8 mg BID after 24 mg QD): 7.92
Acne, patients (%) ([3]; 4 mg twice daily): 4 (13.8%)
Blood creatine phosphokinase increased, patients (%) ([3]; 4 mg twice daily): 3 (10.3%)
Cough, patients (%) ([3]; 4 mg twice daily): 4 (13.8%)
Diarrhoea, patients (%) ([3]; 4 mg twice daily): 3 (10.3%)
Folliculitis, patients (%) ([3]; 4 mg twice daily): 3 (10.3%)
Headache, patients (%) ([3]; 4 mg twice daily): 5 (17.2%)
LDL increase, patients (%) ([3]; 4 mg twice daily): 0
Nasopharyngitis, patients (%) ([3]; 4 mg twice daily): 3 (10.3%)
Nausea, patients (%) ([3]; 4 mg twice daily): 4 (13.8%)
Oroharyngeal pain, patients (%) ([3]; 4 mg twice daily): 3 (10.3%)
Upper respiratory tract infection, patients (%) ([3]; 4 mg twice daily): 2 (6.9%)
Acne, patients (%) ([3]; 8 mg twice daily): 4 (10.5%)
Blood creatine phosphokinase increased, patients (%) ([3]; 8 mg twice daily): 2 (5.3%)
Cough, patients (%) ([3]; 8 mg twice daily): 1 (2.6%)
Diarrhoea, patients (%) ([3]; 8 mg twice daily): 1 (2.6%)
Folliculitis, patients (%) ([3]; 8 mg twice daily): 2 (5.3%)
Headache, patients (%) ([3]; 8 mg twice daily): 10 (26.3%)
LDL increase, patients (%) ([3]; 8 mg twice daily): 4 (10.5%)
Nasopharyngitis, patients (%) ([3]; 8 mg twice daily): 3 (7.9%)
Nausea, patients (%) ([3]; 8 mg twice daily): 4 (10.5%)
Oroharyngeal pain, patients (%) ([3]; 8 mg twice daily): 2 (5.3%)
Upper respiratory tract infection, patients (%) ([3]; 8 mg twice daily): 2 (5.3%)
Acne, patients (%) ([3]; 12 mg twice daily): 6 (16.7%)
Blood creatine phosphokinase increased, patients (%) ([3]; 12 mg twice daily): 1 (2.8%)
Cough, patients (%) ([3]; 12 mg twice daily): 2 (5.6%)
Diarrhoea, patients (%) ([3]; 12 mg twice daily): 0
Folliculitis, patients (%) ([3]; 12 mg twice daily): 1 (2.8%)
Headache, patients (%) ([3]; 12 mg twice daily): 7 (19.4%)
LDL increase, patients (%) ([3]; 12 mg twice daily): 0
Nasopharyngitis, patients (%) ([3]; 12 mg twice daily): 9 (25.0%)
Nausea, patients (%) ([3]; 12 mg twice daily): 1 (2.8%)
Oroharyngeal pain, patients (%) ([3]; 12 mg twice daily): 1 (2.8%)
Upper respiratory tract infection, patients (%) ([3]; 12 mg twice daily): 7 (19.4%)
serious adverse events ([3]; 4, 8, 12 mg BID, 24 weeks): no serious adverse events
tolerability of treatment ([3]; 4, 8, 12 mg BID, 24 weeks): generally well-tolerated
Grade 3/4 hematology events ([3]; preliminary analysis, total, distributed equally across placebo, 4 mg and 8 mg groups): 3
